The source of these data is ChEMBL document CHEMBL5614418, “Discovery of novel dihydropyrrolidone-thiadiazole compound crosstalk between the YycG/F two-component regulatory pathway and cell membrane homeostasis to combat methicillin-resistant Staphylococcus aureus” (Eur J Med Chem, 2024).

The CC50 is the concentration that lowers cell viability or growth by half. A higher CC50 goes with better tolerance by the cells. One may read the MIC as the lowest concentration that inhibits growth of the organism. A low value points to a more susceptible organism. The term HC50 denotes the concentration that lyses half of the red blood cells. A high value points to less damage to red cells.

≈ marks a conversion by molar mass, not a printed value.

The nature of series [1]: Cytotoxicity against human LX2 cells incubated for 24 hrs by CCK8 assay. The format is toxicity, cell-based. Particulars: LX-2 cells. A general note: Tetrazolium assays rely on reduction of a dye to a coloured formazan, in cell work by metabolically active cells.
Series [2] has as its system Staphylococcus aureus. Description: Antibacterial activity against methicillin sensitive Staphylococcus aureus SA113 by broth microdilution method. The format is functional. (In broth dilution the organism is exposed to a series of concentrations in liquid medium.)
The nature of series [3]: Hemolytic activity against human erythrocytes measured after 1 hr. Type of series: toxicity, cell-based, Erythrocyte.
Series [4] deals with Enterococcus faecalis. The series can be described thus: Antibacterial activity against Enterococcus faecalis OG1RF by broth microdilution method. The format is functional.
Series [5] has as its system Enterococcus faecium. The series can be described thus: Antibacterial activity against Enterococcus faecium EFM64 by broth microdilution method. Type of series: functional.
Series [6] concerns Staphylococcus epidermidis. The series can be described thus: Antibacterial activity against Staphylococcus epidermidis SE1457 by broth microdilution method. Type of series: functional.
Series [7] deals with Staphylococcus epidermidis. The series can be described thus: Induction of resistance development in Staphylococcus epidermidis SE1457 assessed as fold increase in MIC at 1/2 MIC incubated for 16 hrs after 20 serial passages. Type of series: functional.
Series [8] has as its system Staphylococcus aureus. The series can be described thus: Induction of resistance development in methicillin sensitive Staphylococcus aureus SA113 assessed as fold increase in MIC at 1/2 MIC incubated for 16 hrs after 20 serial passages. The format is functional.

Compound `O=C(C1=C(O)C(=O)N(c2nnc(SCc3ccccc3Cl)s2)C1c1ccc(O)c(Br)c1)c1cc2ccccc2o1` (stereo unspecified) showed a CC50 at 24 h in series [1] of more than 100 µM. The MIC in series [2], in series [4], in series [5] and in series [6] was more than 100 µM in each case. In series [3], this compound gave an HC50 at 1 h of more than 200 µM.

Compound `O=C(C1=C(O)C(=O)N(c2nnc(SCc3ccccc3Cl)s2)C1c1ccccc1O)c1cc2ccccc2s1` (stereo unspecified) showed a CC50 at 24 h in series [1] of more than 100 µM. Moreover, the minimum inhibitory concentration (MIC) in series [2], in series [4], in series [5] and in series [6] was more than 100 µM in each case. In addition, the 50% haemolytic concentration (HC50) at 1 h in series [3] is more than 200 µM.

With `O=C(C1=C(O)C(=O)N(c2nnc(SCc3ccc(Cl)cc3)s2)C1c1ccccc1O)c1cc2ccccc2o1` (stereo unspecified), in series [1], the CC50 at 24 h is more than 100 µM. The MIC in series [2] was found to be 25 µM (≈ 14.4 µg/mL); in series [4], 50 µM (≈ 28.8 µg/mL); in series [5], 50 µM (≈ 28.8 µg/mL); in series [6] it was 25 µM (≈ 14.4 µg/mL). In series [3], this compound gave an HC50 at 1 h of more than 200 µM.

`O=C(C1=C(O)C(=O)N(c2nnc(SCc3cccc(Cl)c3)s2)C1c1ccccc1O)c1cc2ccccc2o1` (stereo unspecified) came in with a CC50 at 24 h in series [1] of more than 100 µM. Further, the minimal inhibitory concentration (MIC) in series [2] turned out to be 50 µM (≈ 28.8 µg/mL); in series [4], 25 µM (≈ 14.4 µg/mL); in series [5], 25 µM (≈ 14.4 µg/mL); in series [6] it was 25 µM (≈ 14.4 µg/mL). In series [3], this compound yielded an HC50 at 1 h of more than 200 µM.

In series [1], `O=C(C1=C(O)C(=O)N(c2nnc(SCc3ccccc3)s2)C1c1ccccc1O)c1ccc(F)cc1` (stereo unspecified) displayed a CC50 at 24 h of more than 100 µM. Also, the MIC in series [2], in series [4], in series [5] and in series [6] was more than 100 µM each time. In series [3], the HC50 at 1 h is more than 200 µM.

For `COC(=O)COc1ccc(C2C(C(=O)c3cc4ccccc4o3)=C(O)C(=O)N2c2nnc(SCc3ccccc3Cl)s2)cc1` (stereo unspecified), the cytotoxic concentration (CC50) at 24 h in series [1] was more than 100 µM. Also, the MIC in series [2], in series [4], in series [5] and in series [6] was more than 100 µM in each case. Also, the HC50 at 1 h in series [3] was more than 200 µM.

Consider `COc1ccc(C(=O)C2=C(O)C(=O)N(c3nnc(SCc4ccccc4)s3)C2c2ccccc2O)cc1` (stereo unspecified), for which the CC50 at 24 h in series [1] was more than 100 µM. Also, the MIC in series [2], in series [4], in series [5] and in series [6] was more than 100 µM each time. The same compound had a concentration for 50% haemolysis (HC50) at 1 h in series [3] of more than 200 µM.

On to `COc1ccc(O)c(C2C(C(=O)c3cc4ccccc4o3)=C(O)C(=O)N2c2nnc(SCc3ccccc3Cl)s2)c1` (stereo unspecified), for which the CC50 at 24 h in series [1] was more than 100 µM. Further, the MIC in series [2] was 50 µM (≈ 30.3 µg/mL); in series [4], 100 µM (≈ 60.6 µg/mL); in series [5] it was 100 µM (≈ 60.6 µg/mL); in series [6], 50 µM (≈ 30.3 µg/mL). In series [3], this compound returned an HC50 at 1 h of more than 200 µM.

The compound `O=C(C1=C(O)C(=O)N(c2nnc(SCc3ccccc3Cl)s2)C1c1ccc(O)cc1)c1cc2ccccc2o1` (stereo unspecified) had a CC50 at 24 h in series [1] of more than 100 µM. The MIC in series [2] was 100 µM (≈ 57.6 µg/mL); in series [4], more than 100 µM; in series [5] it was more than 100 µM; in series [6], 50 µM (≈ 28.8 µg/mL). Moreover, the HC50 at 1 h in series [3] was more than 200 µM.

Turning to `O=C(C1=C(O)C(=O)N(c2nnc(SCc3ccccc3Cl)s2)C1c1ccccc1)c1cc2ccccc2o1` (stereo unspecified), the CC50 at 24 h in series [1] was more than 100 µM. The MIC in series [2], in series [4], in series [5] and in series [6] was more than 100 µM each time. In series [3], this compound came in with an HC50 at 1 h of more than 200 µM.

On to `CC(=O)NC[C@H]1CN(c2ccc(N3CCOCC3)c(F)c2)C(=O)O1`, for which the fold change (FC) in series [7] and in series [8] was 4 in each case.

`O=C(C1=C(O)C(=O)N(c2nnc(SCc3ccccc3)s2)C1c1cccc(O)c1O)c1cc2ccccc2o1` (stereo unspecified) had a CC50 at 24 h in series [1] of more than 100 µM. For the same compound, the MIC in series [2] amounted to 50 µM (≈ 27.9 µg/mL); in series [4] it was 25 µM (≈ 13.9 µg/mL); in series [5], 25 µM (≈ 13.9 µg/mL); in series [6], 50 µM (≈ 27.9 µg/mL). In series [3], the HC50 at 1 h was more than 200 µM.

On to `O=C(C1=C(O)C(=O)N(c2nnc(SCc3ccccc3)s2)C1c1ccccc1O)c1ccc([N+](=O)[O-])cc1` (stereo unspecified), for which the CC50 at 24 h in series [1] is more than 100 µM. The MIC in series [2], in series [4], in series [5] and in series [6] was more than 100 µM each time. In series [3], this compound returned a concentration for 50% haemolysis (HC50) at 1 h of more than 200 µM.

Consider `O=C(C1=C(O)C(=O)N(c2nnc(SCc3ccccc3)s2)C1c1ccc(O)cc1O)c1cc2ccccc2o1` (stereo unspecified), for which the CC50 at 24 h in series [1] was more than 100 µM. For the same compound, the MIC in series [2], in series [4], in series [5] and in series [6] was more than 100 µM each time. For the same compound, in series [3], the HC50 at 1 h is more than 200 µM.

With `O=C(C1=C(O)C(=O)N(c2nnc(SCc3ccccc3)s2)C1c1ccccc1O)c1ccc(C(F)(F)F)cc1` (stereo unspecified), in series [1], the CC50 at 24 h is more than 100 µM. In addition, the MIC in series [2], in series [4], in series [5] and in series [6] was more than 100 µM each time. Further, the 50% haemolytic concentration (HC50) at 1 h in series [3] is more than 200 µM.

In series [1], `O=C(C1=C(O)C(=O)N(c2nnc(SCc3ccccc3)s2)C1c1ccccc1O)c1cc2ccccc2s1` (stereo unspecified) yielded a CC50 at 24 h of more than 100 µM. Also, the MIC in series [2], in series [4], in series [5] and in series [6] was more than 100 µM in each case. In series [3], the HC50 at 1 h was more than 200 µM.

As for `COc1cc(C2C(C(=O)c3cc4ccccc4o3)=C(O)C(=O)N2c2nnc(SCc3ccccc3)s2)ccc1O` (stereo unspecified), in series [1], the cytotoxic concentration (CC50) at 24 h is more than 100 µM. In addition, the MIC in series [2], in series [4], in series [5] and in series [6] was more than 100 µM throughout. Also, the HC50 at 1 h in series [3] was more than 200 µM.

In turn, `O=C(O)COc1ccc(C2C(C(=O)c3cc4ccccc4o3)=C(O)C(=O)N2c2nnc(SCc3ccccc3Cl)s2)cc1` (stereo unspecified) returned a CC50 at 24 h in series [1] of more than 100 µM. Also, the MIC in series [2], in series [4], in series [5] and in series [6] was more than 100 µM in each case. The compound also showed an HC50 at 1 h in series [3] of more than 200 µM.

In series [1], `O=C(C1=C(O)C(=O)N(c2nnc(SCc3ccccc3)s2)C1c1ccc(O)c(O)c1)c1cc2ccccc2o1` (stereo unspecified) yielded a CC50 at 24 h of more than 100 µM. Further, the MIC in series [2], in series [4], in series [5] and in series [6] was more than 100 µM in each case. In series [3], the HC50 at 1 h was more than 200 µM.

Regarding `O=C(C1=C(O)C(=O)N(c2nnc(SCc3ccccc3Cl)s2)C1c1cccc(O)c1)c1cc2ccccc2o1` (stereo unspecified), in series [1], the CC50 at 24 h is more than 100 µM. The MIC in series [2], in series [4], in series [5] and in series [6] was more than 100 µM each time. The HC50 at 1 h in series [3] was more than 200 µM.
